Literature values as cited in EP1860434A1, “Method for analysing substance mixtures” (Shimadzu Europa GmbH, priority 2006, dated 2007).

details: listed for the six substances of the Performance Test Probe; no measurement described

For “2-Ethyliden-1.5-dimethyl-3.3-diphenyl-pyrrolidin”, which pKa-Wert is on record?
The pKa-Wert was 9.6.

Which pKa-Wert does the source give for `CC(N)Cc1ccc2c(c1)OCO2` (stereo not drawn) [Methylendioxyamphetamin (MDA), Methylendioxyamphetamin] here?
Its pKa-Wert is 9.7.

Which pKa-Wert does the source give for `CN(C)C(=O)Oc1cccc([N+](C)(C)C)c1` [Neostigminbromid] here?
The pKa-Wert was 12.
